Key:
[1] = Metabolic stability in human liver microsomes assessed as intact fractions at […] preincubated for 5 min measured by TLC followed by RP-HPLC; type: ADME, Microsome; settings: read-out: Activity
[2] = Metabolic stability in mouse liver microsomes assessed as intact fractions at […] preincubated for 5 min measured by TLC followed by RP-HPLC; type: ADME, Microsome; settings: read-out: Activity
[3] = Metabolic stability in mouse liver microsomes assessed as retention time at […] measured after 5 mins by RP-HPLC; type: ADME, Microsome
[4] = Metabolic stability in human liver microsomes assessed as retention time at […] measured after 5 mins by RP-HPLC; type: ADME, Microsome
[5] = Biodistribution in ICR mouse neck at 7.4 kBq, iv upto 24 hrs; type: ADME, organism-based; settings: in vivo
[6] = Biodistribution in ICR mouse stomach at 7.4 kBq, iv upto 24 hrs; type: ADME, organism-based; settings: in vivo
[7] = Biodistribution in ICR mouse assessed as blood clearance by measuring elimination rate at 7.4 kBq, iv upto 24 hrs; type: ADME, organism-based; settings: in vivo
[8] = Drug metabolism in ICR mouse urine assessed as metabolite during retention time measured at 7.4 kBq, iv after 6 hrs by RP-HPLC followed by HILIC-HPLC analysis; type: ADME, organism-based
[9] = Stability of compound in presence of GSH measured upto 24 hrs by TLC radiochromatogram; type: physicochemical
[10] = Metabolic stability in mouse liver microsomes assessed as intact fractions at 0.3 MBq preincubated for 5 min measured by TLC analysis; type: ADME, Microsome; settings: read-out: Stability
[11] = Metabolic stability in human liver microsomes assessed as intact fractions at 0.3 MBq preincubated for 5 min measured by TLC analysis; type: ADME, Microsome; settings: read-out: Stability

Compound	remaining at 5 min [1]	remaining at 5 min [2]	Retention_time [3]	Retention_time [4]	Drug uptake [5]	Drug uptake [6]	CL [7]	Drug excretion [8]	Stability [9]	Drug metabolism [8]	remaining at 5 min, 0.3 MBq [10]	remaining at 5 min, 0.3 MBq [11]
O=C(O)[C@H]1O[C@@H](OCC(CO)(C[125I])Cn2ccnc2[N+](=O)[O-])[C@H](O)[C@@H](O)[C@@H]1O (stereo partly specified)	> 99.8%	> 99.8%	< 0.2 min	< 0.2 min								
O=C(NCCn1ccnc1[N+](=O)[O-])c1cccc([211At])c1					Active	Active	Not Active					
CCC(C[125I])(CO[C@@H]1O[C@H](C(=O)O)[C@@H](O)[C@H](O)[C@H]1O)Cn1ccnc1[N+](=O)[O-] (stereo partly specified)	> 99.8%	> 99.8%	< 0.2 min	< 0.2 min								
CCC(CO)(C[125I])Cn1ccnc1[N+](=O)[O-] (stereo unspecified)	> 99.8%	72%	23.5 min	< 0.2 min	Not Active	Not Active	Active	Active	Stable			
O=[N+]([O-])c1nccn1CC(CO)(CO)C[211At]	96.9%	96.9%			Not Active	Not Active	Active		Stable	Metabolite_Detected	96.9%	96.9%
O=C(NCCn1ccnc1[N+](=O)[O-])c1cccc([125I])c1					Not Active	Not Active	Active	Not Active				
CCC(CC)(C[125I])Cn1ccnc1[N+](=O)[O-]	1.5%	2.2%	52.6 min	16.5 min	Active	Active	Not Active	Active	Stable			
O=[N+]([O-])c1nccn1CC(CO)(CO)C[125I]	> 99.8%	> 99.8%	< 0.2 min	< 0.2 min	Not Active	Not Active	Active		Stable	Metabolite_Detected		

— ChEMBL document CHEMBL5029172, “Neopentyl Glycol as a Scaffold to Provide Radiohalogenated Theranostic Pairs of High In Vivo Stability” (J Med Chem, 2021)
